Laboratory results from patent publication US20030032674A1, “Use of unsaturated fatty acids to treat severe inflammatory diseases” (priority 2001, published 2003).

Target: T1, TLR2 (Homo sapiens, UniProt O60603)
T1 construct: expressed in transfected cells; host or cells: 293T (stated not to express TLR2)
Assay: NFκB reporter in TLR2-transfected 293T cells
Format: cell-based
Details: PamCAG 100 ng/ml
Source text: Plasmids and DNA Constructs—All plasmids and constructs were obtained or made as reported in either S. H. Rhee and D. Hwang, “Murine TOLL-like receptor 4 confers lipopolysaccaride responsiveness as determined by activation of NFκB and expression of the inducible cyclooxygenase,” Journal of Biological Chemistry, vol. 275, pp. 34035-34040 (2000); and J. Y. Lee et al., “Saturated fatty acids, but not unsaturated fatty acids, induce the expression of cyclooxygenase-2 mediated through TOLL-like receptor 4,” Journal of Biological Chemistry, vol. 276, pp. 16683-16689 (2001). Briefly, the luciferase reporter plasmids (pGL2) containing the promoter region of the murine COX-2 gene (−3201/+93 or −1017/+93) were provided by David Dewitt (Michigan State University, East Lansing, Mich.). To prepare the wild-type COX-2 promoter fragment, polymerase chain reaction (PCR) was performed with the primers named Kpn-COX2-For and Hind-COX2-Rev using the murine COX-2 (−1017/+93) luciferase reporter plasmid as a template. To prepare the mutant COX-2 promoter fragment containing mutated NFκB site, Kpn-COX2-Fmut and Hind-COX2-Rev were used as primers. […]
Acylation by saturated fatty acids of bacterial lipopeptides is also required for the activation of TLR2. […] After 18 hr, luciferase activities were determined. […]

T1 sequence (O60603 21-784, species assumed): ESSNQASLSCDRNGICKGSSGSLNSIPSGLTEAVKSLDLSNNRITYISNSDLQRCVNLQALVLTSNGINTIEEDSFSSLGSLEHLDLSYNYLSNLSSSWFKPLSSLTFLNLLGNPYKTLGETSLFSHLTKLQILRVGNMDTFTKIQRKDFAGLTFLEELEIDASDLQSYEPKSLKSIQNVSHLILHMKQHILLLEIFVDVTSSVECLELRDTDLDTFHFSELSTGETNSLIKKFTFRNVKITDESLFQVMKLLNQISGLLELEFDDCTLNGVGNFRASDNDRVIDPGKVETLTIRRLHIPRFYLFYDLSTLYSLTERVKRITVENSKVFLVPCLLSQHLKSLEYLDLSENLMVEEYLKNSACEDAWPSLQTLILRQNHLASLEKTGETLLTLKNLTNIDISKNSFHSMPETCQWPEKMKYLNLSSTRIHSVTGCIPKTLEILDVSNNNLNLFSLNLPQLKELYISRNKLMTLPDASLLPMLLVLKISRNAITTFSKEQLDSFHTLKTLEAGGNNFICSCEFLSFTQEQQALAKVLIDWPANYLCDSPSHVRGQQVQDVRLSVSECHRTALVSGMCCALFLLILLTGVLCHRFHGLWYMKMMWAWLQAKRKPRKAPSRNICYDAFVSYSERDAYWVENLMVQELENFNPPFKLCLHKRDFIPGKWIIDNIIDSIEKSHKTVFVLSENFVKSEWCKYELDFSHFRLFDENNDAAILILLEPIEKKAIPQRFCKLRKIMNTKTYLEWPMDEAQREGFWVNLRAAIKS

- effect on NFκB activation induced by PamCAG: potentiated
Structure (SMILES): CCCCCCCCCCCC(=O)O [lauric acid]
